pIC50: −log10 of the molar value. The source made the active and inactive calls. The calls are words filed in the database; no cut-off is given here.
Columns and labels:
[1] = Cytostatic activity against human dermal fibroblasts assessed as growth inhibition at 64 to 1000 nM after 72 hrs by coulter counter analysis; settings: skin fibroblast, 1 µM
MIA PaCa-2 = test: Cytotoxicity against human MIAPaCa2 cells after 72 hrs by coulter counter analysis; type: functional, cell-based; settings: MIA PaCa-2, 72 h
PANC-1 = test: Cytotoxicity against human PANC1 cells after 72 hrs by coulter counter analysis; type: functional, cell-based; settings: PANC-1, 72 h
SK-OV-3 = test: Cytotoxicity against human SKOV3 cells after 72 hrs by coulter counter analysis; type: functional, cell-based; settings: SK-OV-3, 72 h
U2OS = test: Cytotoxicity against human U2OS cells after 72 hrs by coulter counter analysis; type: functional, cell-based
IGROV-1 [2] = test: Cytotoxicity against cisplatin-resistant human IGROV1/Pt1 cells after 72 hrs by coulter counter analysis; type: functional, cell-based; settings: IGROV-1, 72 h
IGROV-1 [3] = test: Cytotoxicity against human IGROV1 cells after 72 hrs by coulter counter analysis; type: functional, cell-based; settings: IGROV-1, 72 h
[4] = Selectivity ratio of IC50 for integrin alphaVbeta5 receptor to IC50 for integrin alphaVbeta3 receptor
Integrin alpha-V/beta-5 = Integrin alpha-V/beta-5 (Homo sapiens, UniProt P06756+P18084); test: Competitive inhibition of biotinylated vitronectin to integrin alphaVbeta5 receptor after 3 hrs by microplate reader analysis; type: protein-complex assay
Integrin alpha-V/beta-3 = Integrin alpha-V/beta-3 (Homo sapiens, UniProt P05106+P06756); test: Competitive inhibition of biotinylated vitronectin to integrin alphaVbeta3 receptor after 3 hrs by microplate reader analysis; type: protein-complex assay
IGROV-1 [5] = test: Induction of abberant mitosis in cisplatin-resistant human IGROV1/Pt1 cells overexpressing integrin alphaVbeta3 receptors xenografted in athymic Swiss mouse at 30 mg/kg, iv measured 24 hrs post fourth treatment by hematoxylin and eosin staining; type: functional, organism-based; parameters: dose 30 mg/kg
IGROV-1 [6] = test: Induction of abberant mitosis in cisplatin-resistant human IGROV1/Pt1 cells overexpressing integrin alphaVbeta3 receptors xenografted in athymic Swiss mouse at 30 mg/kg, iv measured 24 hrs post second treatment by hematoxylin and eosin staining; type: functional, organism-based; parameters: dose 30 mg/kg
Mus musculus [7] = test: Toxicity in athymic Swiss mouse xenografted with cisplatin-resistant human IGROV1/Pt1 cells overexpressing integrin alphaVbeta3 receptors assessed as body weight loss at 15 mg/kg, iv administered every 4 days for 4 times; type: organism-based, IGROV-1; parameters: dose 15 mg/kg, route intravenous; settings: in vivo, 96 h
Mus musculus [8] = test: Toxicity in athymic Swiss mouse xenografted with cisplatin-resistant human IGROV1/Pt1 cells overexpressing integrin alphaVbeta3 receptors assessed as body weight loss at 30 mg/kg, iv administered every 4 days for 4 times; type: organism-based, IGROV-1; parameters: dose 30 mg/kg, route intravenous; settings: in vivo, 96 h
[9] = Antitumor activity against cisplatin-resistant human IGROV1/Pt1 cells overexpressing integrin alphaVbeta3 receptors xenografted in athymic Swiss mouse assessed as tumor killing at 15 mg/kg, iv administered every 4 days for 4 times; type: functional, IGROV-1
[10] = Antitumor activity against cisplatin-resistant human IGROV1/Pt1 cells overexpressing integrin alphaVbeta3 receptors xenografted in athymic Swiss mouse assessed as tumor killing at 30 mg/kg, iv administered every 4 days for 4 times; type: functional, IGROV-1
IGROV-1 [11] = test: Antitumor activity against cisplatin-resistant human IGROV1/Pt1 cells overexpressing integrin alphaVbeta3 receptors xenografted in athymic Swiss mouse assessed as absence of disease at 30 mg/kg, iv administered every 4 days for 4 times measured up to 10 days; type: functional, organism-based; parameters: dose 30 mg/kg
IGROV-1 [12] = test: Antitumor activity against cisplatin-resistant human IGROV1/Pt1 cells overexpressing integrin alphaVbeta3 receptors xenografted in athymic Swiss mouse assessed as disappearance of tumor lasting at 15 mg/kg, iv administered every 4 days for 4 times measured up to 10 days; type: functional, organism-based; parameters: dose 15 mg/kg
[13] = Antitumor activity against cisplatin-resistant human IGROV1/Pt1 cells overexpressing integrin alphaVbeta3 receptors xenografted in athymic Swiss mouse assessed as tumor volume inhibition at 15 mg/kg, iv administered every 4 days for 4 times measured after 10 days relative to control; type: functional; settings: IGROV-1
[14] = Antitumor activity against cisplatin-resistant human IGROV1/Pt1 cells overexpressing integrin alphaVbeta3 receptors xenografted in athymic Swiss mouse assessed as tumor volume inhibition at 30 mg/kg, iv administered every 4 days for 4 times measured after 10 days relative to control; type: functional; settings: IGROV-1
[15] = Half life in human plasma at 10 uM by HPLC analysis; type: ADME, cell-free
[16] = Half life in mouse plasma at 10 uM by HPLC analysis; type: ADME, cell-free
[17] = Solubility of the compound in 0.9% NaCl in H2O/Cremophor EL/ethanol 90:5:5 v/v at 1.28 mM measured for 1 week by HPLC analysis; type: physicochemical; settings: 168 h, 1280 µM
[18] = Solubility of the compound in 0.9% NaCl in H2O/Cremophor EL/ethanol 90:5:5 v/v at 1.92 mM after 2 days by HPLC analysis; type: physicochemical; settings: 48 h, 1920 µM
[19] = Stability of the compound in 0.9% NaCl in H2O/Cremophor EL/ethanol 90:5:5 v/v at 1.28 mM measured for 1 week by HPLC analysis; type: physicochemical; settings: 168 h, 1280 µM
[20] = Stability of the compound in 0.9% NaCl in H2O/Cremophor EL/ethanol 90:5:5 v/v at 1.92 mM after 2 days by HPLC analysis; type: physicochemical; settings: 48 h, 1920 µM
[21] = Half life of the compound in glucose phosphate buffer at pH 7; type: physicochemical

Ratio IC50 [4]	pIC50 (Integrin alpha-V/beta-5)	pIC50 (Integrin alpha-V/beta-3)	SMILES	growth inhibition (GI) [1]	pIC50 (MIA PaCa-2)	pIC50 (PANC-1)	pIC50 (SK-OV-3)	pIC50 (U2OS)	pIC50 (IGROV-1 [2])	pIC50 (IGROV-1 [3])	other results
20	6.29	8.07	CC(=O)O[C@H]1C(=O)[C@@]2(C)[C@H]([C@H](OC(=O)c3ccccc3)[C@]3(O)C[C@H](OC(=O)[C@H](OC(=O)CCC(=O)NCc4ccc(CN5C(=O)[C@@H]6CC(=O)N[C@@H](CCCNC(=N)N)C(=O)NCC(=O)N[C@@H](CC(=O)O)C(=O)NC[C@@H]5C(=O)N6)cc4)[C@@H](NC(=O)c4ccccc4)c4ccccc4)C(C)=C1C3(C)C)[C@]1(OC(C)=O)CO[C@@H]1C[C@@H]2O	Non-toxic	8.70	8.24	8.80	8.66	7.73	7.75	–
20	–	–	N=C(N)NCCC[C@@H]1NC(=O)C[C@H]2C(=O)N[C@H](CNC(=O)[C@H](CC(=O)O)NC(=O)CNC1=O)C(=O)N2Cc1ccc(CNC(=O)CCC(=O)O)cc1	–	–	–	–	–	–	–	–
–	7.12	9.05	CC(=O)O[C@H]1C(=O)[C@@]2(C)[C@H]([C@H](OC(=O)c3ccccc3)[C@]3(O)C[C@H](OC(=O)[C@H](OC(=O)CCC(=O)NCc4ccc(CN5C(=O)[C@H]6CNC(=O)[C@H](CC(=O)O)NC(=O)CNC(=O)[C@H](CCCN=C(N)N)NC(=O)C[C@H]5C(=O)N6)cc4)[C@@H](NC(=O)c4ccccc4)c4ccccc4)C(C)=C1C3(C)C)[C@]1(OC(C)=O)CO[C@@H]1C[C@@H]2O	Non-toxic	8.74	8.49	8.62	8.17	8.43	7.46	–
–	7.12	8.39	NC(N)=NCCC[C@@H]1NC(=O)C[C@H]2C(=O)N[C@H](CNC(=O)[C@H](CC(=O)O)NC(=O)CNC1=O)C(=O)N2Cc1ccc(CNC(=O)CCC(=O)O)cc1	–	–	–	–	–	–	–	–
–	7.66	8.96	CC(=O)O[C@H]1C(=O)[C@@]2(C)[C@H]([C@H](OC(=O)c3ccccc3)[C@]3(O)C[C@H](OC(=O)[C@H](OC(=O)CCC(=O)NCc4ccc(CN5C(=O)[C@@H]6CNC(=O)[C@H](CC(=O)O)NC(=O)CNC(=O)[C@H](CCCNC(=N)N)NC(=O)C[C@@H]5C(=O)N6)cc4)[C@@H](NC(=O)c4ccccc4)c4ccccc4)C(C)=C1C3(C)C)[C@]1(OC(C)=O)CO[C@@H]1C[C@@H]2O	Non-toxic	8.60	8.46	8.62	8.24	8.62	7.32	–
–	–	9.70	N=C(N)NCCC[C@@H]1NC(=O)C[C@@H]2C(=O)N(Cc3ccccc3)[C@@H](CNC(=O)[C@H](CC(=O)O)NC(=O)CNC1=O)C(=O)N2Cc1ccccc1 (stereo in doubt; 7b)	–	–	–	–	–	–	–	–

The next lines start with the molecule.

SMILES	Ratio IC50 [4]	pIC50 (Integrin alpha-V/beta-5)	pIC50 (Integrin alpha-V/beta-3)	growth inhibition (GI) [1]	pIC50 (MIA PaCa-2)	pIC50 (PANC-1)	pIC50 (SK-OV-3)	pIC50 (U2OS)	pIC50 (IGROV-1 [2])	pIC50 (IGROV-1 [3])	other results
N=C(N)NCCC[C@@H]1NC(=O)C[C@@H]2C(=O)N(Cc3ccccc3)[C@@H](CNC(=O)[C@H](CC(=O)O)NC(=O)CNC1=O)C(=O)N2Cc1ccccc1 (stereo in doubt; 7a)	–	–	9.70	–	–	–	–	–	–	–	–
N=C(N)NCCC[C@@H]1NC(=O)C[C@@H]2NC(=O)[C@@H](CNC(=O)[C@H](CC(=O)O)NC(=O)CNC1=O)N(Cc1ccccc1)C2=O	20	6.94	8.49	–	–	–	–	–	–	–	–
CC(=O)O[C@H]1C(=O)[C@@]2(C)[C@H]([C@H](OC(=O)c3ccccc3)[C@]3(O)C[C@H](OC(=O)[C@H](OC(=O)CCC(=O)NCc4ccc(CN5C(=O)[C@H]6CC(=O)N[C@@H](CCCNC(=N)N)C(=O)NCC(=O)N[C@@H](CC(=O)O)C(=O)NC[C@H]5C(=O)N6)cc4)[C@@H](NC(=O)c4ccccc4)c4ccccc4)C(C)=C1C3(C)C)[C@]1(OC(C)=O)CO[C@@H]1C[C@@H]2O	20	6.66	8.28	Non-toxic	8.64	8.62	8.92	7.89	8.31	7.21	Activity (IGROV-1 [5]): Active; Activity (IGROV-1 [6]): Active; Activity (Mus musculus [7]): 0%; Activity (Mus musculus [8]): 3%; LCK [9]: 0.3; LCK [10]: 1.4; Activity (IGROV-1 [11]): Active; Activity (IGROV-1 [12]): Active; inhibition in vivo at 15 mg/kg [13]: 64%; inhibition in vivo at 30 mg/kg [14]: 85%; half-life at 10 µM [15]: 2.38 h; half-life at 10 µM [16]: 2.75 h; solubility [17]: soluble; solubility [18]: Insoluble; Stability [19]: Stable; Stability [20]: Unstable
N=C(N)NCCC[C@@H]1NC(=O)C[C@@H]2C(=O)N[C@@H](CNC(=O)[C@H](CC(=O)O)NC(=O)CNC1=O)C(=O)N2Cc1ccccc1	20	7.10	8.68	–	–	–	–	–	–	–	–
N=C(N)NCCC[C@@H]1NC(=O)[C@@H]2CC[C@H]3CCC[C@@H](NC(=O)[C@H](CC(=O)O)NC(=O)CNC1=O)C(=O)N32	20	8.85	9.00	–	–	–	–	–	–	–	–
CC(=O)O[C@H]1C(=O)[C@@]2(C)[C@H]([C@H](OC(=O)c3ccccc3)[C@]3(O)C[C@H](OC(=O)[C@H](O)[C@@H](NC(=O)c4ccccc4)c4ccccc4)C(C)=C1C3(C)C)[C@]1(OC(C)=O)CO[C@@H]1C[C@@H]2O [PACLITAXEL]	–	–	–	Non-toxic	8.14	8.28	8.57	8.47	8.66	7.64	Activity (IGROV-1 [5]): inactive; Activity (IGROV-1 [6]): Active; Activity (Mus musculus [8]): 4%; LCK [10]: 0.7; Activity (IGROV-1 [11]): Active; inhibition in vivo at 30 mg/kg [14]: 76%
N=C(N)NCCC[C@@H]1NC(=O)C[C@H]2C(=O)N[C@H](CNC(=O)[C@H](CC(=O)O)NC(=O)CNC1=O)C(=O)N2Cc1ccccc1	20	6.67	8.12	–	–	–	–	–	–	–	–
NC(N)=NCCC[C@@H]1NC(=O)C[C@@H]2NC(=O)[C@H](CNC(=O)[C@H](CC(=O)O)NC(=O)CNC1=O)N(Cc1ccccc1)C2=O	–	–	8.41	–	–	–	–	–	–	–	–
N=C(N)NCCC[C@@H]1NC(=O)C[C@H]2C(=O)N(Cc3ccccc3)[C@H](CNC(=O)[C@H](CC(=O)O)NC(=O)CNC1=O)C(=O)N2Cc1ccccc1	–	–	9.70	–	–	–	–	–	–	–	–
CC(=O)O[C@H]1C(=O)[C@@]2(C)[C@H]([C@H](OC(=O)c3ccccc3)[C@]3(O)C[C@H](OC(=O)[C@H](OC(=O)CCC(=O)N[C@@H](CCC(=O)NCCCC[C@@H]4NC(=O)[C@@H](Cc5ccccc5)NC(=O)[C@H](CC(=O)O)NC(=O)CNC(=O)[C@H](CCCNC(=N)N)NC4=O)C(=O)NCCCC[C@@H]4NC(=O)[C@@H](Cc5ccccc5)NC(=O)[C@H](CC(=O)O)NC(=O)CNC(=O)[C@H](CCCNC(=N)N)NC4=O)[C@@H](NC(=O)c4ccccc4)c4ccccc4)C(C)=C1C3(C)C)[C@]1(OC(C)=O)CO[C@@H]1C[C@@H]2O	–	–	–	–	–	–	–	–	–	–	half-life [21]: 2 h
N=C(N)NCCC[C@@H]1NC(=O)C[C@H]2NC(=O)[C@H](CNC(=O)[C@H](CC(=O)O)NC(=O)CNC1=O)N(Cc1ccc(CN)cc1)C2=O.O=C(O)C(F)(F)F	–	< 5.30	7.58	Non-toxic	< 4.94	< 4.94	< 4.94	< 5.20	< 4.74	< 5.92	–
N=C(N)NCCC[C@@H]1NC(=O)C[C@H]2NC(=O)[C@H](CNC(=O)[C@H](CC(=O)O)NC(=O)CNC1=O)N(Cc1ccccc1)C2=O	20	6.83	–	–	–	–	–	–	–	–	–
